Experimental data: patent US9127233B2, “Device and method for solubilizing, separating, removing and reacting carboxylic acids in oils, fats, aqueous or organic solutions by means of micro-or nanoemulsification” (priority 2010, dated 2015)
Where two headings read alike, the source gives them in different places.

Assays:
[1] = Estimation of the interaction between oleic acid and the test substance; type: physicochemical
Protocol: Several solubilizing compounds were tested in aqueous medium for their potential to solubilize a reference fatty acid, namely oleic acid.
(§1) In the following tests oleic acid was mixed with the test substances in H2O, Subsequently, log P and pH were measured and the solubility of the test substance in H2O was estimated together with an estimation of the interaction between oleic acid and the test substance according to the scheme shown below.
(§2) The solutions were rested for 1 h and pH was measured. In case of incomplete dissolution and a pH below 7 a 1M NaOH solution was added dropwise until turbidity resolved. Then the mixtures were stirred or shaken. In order to assess the stability of the obtained micro or nanoemulsion, the solution were heated for 1 hour to 60° C. and cooled to room temperature. An other part of the clear solution was stored over night at 4° C. and then rewarmed to room temperature. Thereafter solutions were analysed for solid formation, residual oil, viscosity, turbidity, and DLS measurements were performed.
Estimation of the Interaction Between Oleic Acid and the Test Substance: • X=Interaction between oleic acid and the test substance • (X)=Interaction between oleic acid and test substance.

[2] = Dynamic laser light scattering (DLS) of oleic acid micro-/nanoemulsions; type: physicochemical; conditions: for Mean Size by Intensity: DLS, emulsion with oleic acid; for Part: percentage of the peak in the sample
Protocol: as §2
For DLS measurements a Zetasizer Nano S from Malvern (USA) was used. All measurements were repeated three times undiluted, or 1:10 and 1:100 diluted by water. For the measurements the viscosity of water and the refractory index of water were used.
Peak Maximum by Intensity: Size is directly determined from the measurement without a weighting of volume or particle number.
Peaks are presented corresponding to their percentage in the sample.
Ratio of peak maxima: Percentual distribution of particle sizes.

[3] = pH of aqueous solution of solubilizing compound mixed with oleic acid; type: physicochemical; conditions: solubilizing compound in water with 0.833 mol equivalents of oleic acid
Protocol: as §1
The solutions were rested for 1 h and pH was measured. In case of incomplete dissolution and a pH below 7 a 1M NaOH solution was added dropwise until turbidity resolved. Then the mixtures were stirred or shaken.

[4] = target: fatty acids bound to albumin (Homo sapiens, UniProt P02768); assay: Liberation of 3H-labeled oleic acid bound to albumin, extraction with n-hexane; conditions: identical procedure
Sequence of fatty acids bound to albumin (P02768 25-609): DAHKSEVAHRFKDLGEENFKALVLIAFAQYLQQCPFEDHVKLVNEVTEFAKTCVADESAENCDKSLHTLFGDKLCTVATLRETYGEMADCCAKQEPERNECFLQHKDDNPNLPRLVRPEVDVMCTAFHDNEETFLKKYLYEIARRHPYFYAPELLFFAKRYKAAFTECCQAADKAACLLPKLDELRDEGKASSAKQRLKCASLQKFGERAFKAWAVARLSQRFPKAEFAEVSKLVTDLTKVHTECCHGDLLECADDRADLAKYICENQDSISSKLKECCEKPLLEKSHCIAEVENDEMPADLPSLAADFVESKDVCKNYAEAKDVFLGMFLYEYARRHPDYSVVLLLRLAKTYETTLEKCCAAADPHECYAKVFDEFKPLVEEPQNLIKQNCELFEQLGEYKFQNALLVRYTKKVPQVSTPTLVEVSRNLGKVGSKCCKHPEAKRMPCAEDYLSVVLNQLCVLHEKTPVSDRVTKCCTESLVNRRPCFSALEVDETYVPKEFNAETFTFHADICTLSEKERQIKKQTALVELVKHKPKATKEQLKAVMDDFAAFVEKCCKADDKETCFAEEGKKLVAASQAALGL
Description: The capacity of arginine to liberate fatty acids bound to albumin was investigated by ^3H-labeled oleic acid.

[5] = cited from earlier work
[6] = Estimation of solubility of the test substance in H2O; type: physicochemical
Protocol: as §1, §2
Estimation of Solubility: • X=Compound is completely dissolved • (X)=Compound is partially dissolved • ((X))=Compound is not dissolved (visual appearance) but there is a change in pH. Therefore it is assumed that at least a small part is dissolved. • −=insoluble

[7] = log P of the test substance; conditions: water (H2O), test substance mixed with oleic acid
Protocol: as §1

[8] = cited from earlier work; remark: listed apart in the source
[9] = n-octanol and water; cited from earlier work
[10] = Influence of the pH on the solubility of oleic acid in aqueous medium; type: physicochemical
Protocol: At the beginning the influence of the pH on the solubility of oleic acid in aqueous medium was tested. These tests were conducted in order to exclude the possibility that the observed solubility of oleic acid was due to pH changes and not primarily because of the interaction of functional groups.

Protocol for physchem: as §1

With `Cl.N[C@@H](Cc1c[nH]cn1)C(=O)O.O` [Histidine hydrochloride monohydrate] the “Interaction with Oleic Acid” value [1] was “X, E”, the “Mean Size by Intensity” value [2] was 647 nm and the Part [2] was 81.9%. The pH [3] was 9.30, the “reduction of residual fatty acids as compared to arginine” value (“reduction of residual fatty acids” for short) [4] was “significantly less” and the logP (physchem) was -4.37.

For `N=C(N)NCCCC(N)C(=O)O` [L-Arginine, 2-amino-5-guanidinopentanoic acid], the pKa ([5]; amino group) is listed as 8.99, the pKa ([5]; carboxyl group) is listed as 1.82 and the logP (physchem) is listed as -3.52.

In the case of `NC(=O)CC[C@H](N)C(=O)O` [L-Glutamin, reference compound], the “Interaction with Oleic Acid” value [1] is reported as “((X))”, the pH [3] is reported as 8.37 and the “reduction of residual fatty acids” value [4] is reported as “significantly less”. For the same compound, the logP (physchem) was -2.05 and the “Dissolved (H2O)” value [6] was “(X)”.

For `NCCCC[C@H](N)C(=O)O` [L-Lysine], the “Interaction with Oleic Acid” value [1] was “X, E”, the “Mean Size by Intensity” value [2] was 133 nm and the Part [2] was 95.6%. For the same compound, the pH [3] was 9.56, the logP [7] was -3.42 and the “reduction of residual fatty acids” value [4] was “significantly less”.

In the case of `NC(=O)C[C@H](N)C(=O)O` [asparagine, reference compound], the “reduction of residual fatty acids” value [4] is reported as “significantly less”.

In the case of `CO/C=C(/C(=O)OC)c1ccccc1Oc1cc(Oc2ccccc2C#N)ncn1` [azoxystrobin], the “mg soluble in water” value [8] is listed as 6.7 mg/L.

In the case of `[Co+2].c1ccc2c(c1)-c1nc-2nc2[n-]c(nc3nc(nc4[n-]c(n1)c1ccccc41)-c1ccccc1-3)c1ccccc21` [co-phthalocyanine], the “mg soluble in water” value [8] is given as “unsoluble”.

For `CCCCCCCC(=O)O` [octanoic acid], the “log KOW” value [9] is given as 3.05.

For `CCCCCCCC/C=C\CCCCCCCC(=O)O` [oleic acid, cis-9-octadecenoic acid], the “solubility of oleic acid in aqueous medium” value (“solubility of oleic acid” for short) ([10]; pH 14) was “formation of a solid precipitate”, the “solubility of oleic acid” value ([10]; pH range of 9-12 at room temperature) was “no interaction” and the “solubility of oleic acid” value ([10]; starting at pH 13) was “begins to dissolve”.

For `C1=Cc2nc1c(-c1ccccc1)c1nc(c(-c3ccccc3)c3ccc([nH]3)c(-c3ccccc3)c3ccc([nH]3)c2-c2ccccc2)C=C1` [tetraphenylporphyrin], the “mg soluble in water” value [8] is given as 2 mg/L.

For sudan red, the “mg soluble in water” value [8] is listed as “unsoluble”.
